Assay results as given in patent publication US20240208957A1, “TRIAZINE DERIVATIVE AS REVERSIBLE AND IRREVERSIBLE COVALENT INHIBITORS OF PI3K” (UNIVERSITÄT BASEL, priority 2021, published 2024).
Read-outs that look alike come from different tables or passages of the source.

Columns and labels:
[1] = Intrinsic reactivity of the inhibitors with βME measured with HPLC; format: physicochemical; details: 1 mM inhibitor + 600 mM βME, n = 3, mean
Excerpt: E˜I→EI • ii) off-target reactions with ubiquitous sulfhydryls (S) and other nucleophils present in physiologic environments such as cells and body fluids are driven by the intrinsic reactivity of the warhead that is defined by Kchem driving the conversion of S and I to form the sulfhydryl-adduct (SI) [table]

p110α (PI3Kα) = p110α (PI3Kα) (Homo sapiens, UniProt P42336); assay: LanthaScreen determination of kinetic constants (kinact, Ki) for p110α; format: binding; details: for Ki: dissociation constant of the first reversible binding, mean of 3; for kinact: read-out: kinact PI3Kα;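 on all read-outs here: covalent inhibition constants for p110α come from LanthaScreen data, fitted globally by numerical integration in KinTek Global Kinetic Explorer software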
[2] = system: pSer473 of PKB/Akt in SKOV3 cells; assay: In-Cell Western cellular PI3K signaling, pSer473 of PKB/Akt in SKOV3 cells; format: cell-based; details: Homo sapiens
Procedure: Protein phosphorylation was detected as follows: pSer473 of PKB/Akt with rabbit polyclonal antibody from Cell Signaling Technology (CST) (#4058) by In-Cell Western assays, where 1.2×10^4 SKOV3 cells/well in 96-well plates were plated (Cell Carrier, PerkinElmer) for 24 hours (37° C., 5% CO2), as described in Ref.^21.

[3] = background statement; cited from earlier work
[4] = background statement; cited from earlier work; remark: listed apart in the source
[5] = SK-OV-3, SKOV3 cells, mean of 2 or 3 independent measurements, read-out: IC50 pPKB (S473) SKOV3
[6] = mean of 3 independent measurements, global fitting with KinTek
[7] = SK-OV-3, read-out: IC50 pPKB (S473) SKOV3

Chain of p110α (PI3Kα) (P42336 whole entry): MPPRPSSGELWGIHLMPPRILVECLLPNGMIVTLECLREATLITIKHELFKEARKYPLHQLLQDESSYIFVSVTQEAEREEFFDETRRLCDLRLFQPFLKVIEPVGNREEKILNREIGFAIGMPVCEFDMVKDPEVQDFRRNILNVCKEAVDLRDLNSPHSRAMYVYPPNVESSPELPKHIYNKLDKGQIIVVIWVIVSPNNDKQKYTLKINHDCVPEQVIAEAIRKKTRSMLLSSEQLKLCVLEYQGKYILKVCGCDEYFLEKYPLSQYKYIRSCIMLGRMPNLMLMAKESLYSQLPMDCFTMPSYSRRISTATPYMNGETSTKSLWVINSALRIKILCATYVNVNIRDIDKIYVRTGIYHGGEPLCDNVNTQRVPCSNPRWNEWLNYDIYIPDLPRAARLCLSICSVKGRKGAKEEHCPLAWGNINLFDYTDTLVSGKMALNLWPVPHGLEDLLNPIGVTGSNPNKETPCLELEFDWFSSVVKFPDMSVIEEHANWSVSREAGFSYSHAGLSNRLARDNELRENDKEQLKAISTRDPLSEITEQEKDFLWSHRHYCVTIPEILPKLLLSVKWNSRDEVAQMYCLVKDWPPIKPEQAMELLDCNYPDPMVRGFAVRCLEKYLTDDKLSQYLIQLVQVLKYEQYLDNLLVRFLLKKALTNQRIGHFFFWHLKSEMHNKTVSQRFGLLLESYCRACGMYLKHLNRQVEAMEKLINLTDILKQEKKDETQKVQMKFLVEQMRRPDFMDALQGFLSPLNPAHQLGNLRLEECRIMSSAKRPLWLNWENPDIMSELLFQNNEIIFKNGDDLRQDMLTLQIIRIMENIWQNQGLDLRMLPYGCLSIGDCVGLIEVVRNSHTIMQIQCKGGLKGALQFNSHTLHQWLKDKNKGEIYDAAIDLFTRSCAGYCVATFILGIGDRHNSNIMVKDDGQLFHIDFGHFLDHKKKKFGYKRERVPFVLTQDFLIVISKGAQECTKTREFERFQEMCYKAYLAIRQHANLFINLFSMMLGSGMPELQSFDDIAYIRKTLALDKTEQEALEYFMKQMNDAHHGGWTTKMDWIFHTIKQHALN
Chain of p110α (PI3Kα) (P27986 whole entry partner): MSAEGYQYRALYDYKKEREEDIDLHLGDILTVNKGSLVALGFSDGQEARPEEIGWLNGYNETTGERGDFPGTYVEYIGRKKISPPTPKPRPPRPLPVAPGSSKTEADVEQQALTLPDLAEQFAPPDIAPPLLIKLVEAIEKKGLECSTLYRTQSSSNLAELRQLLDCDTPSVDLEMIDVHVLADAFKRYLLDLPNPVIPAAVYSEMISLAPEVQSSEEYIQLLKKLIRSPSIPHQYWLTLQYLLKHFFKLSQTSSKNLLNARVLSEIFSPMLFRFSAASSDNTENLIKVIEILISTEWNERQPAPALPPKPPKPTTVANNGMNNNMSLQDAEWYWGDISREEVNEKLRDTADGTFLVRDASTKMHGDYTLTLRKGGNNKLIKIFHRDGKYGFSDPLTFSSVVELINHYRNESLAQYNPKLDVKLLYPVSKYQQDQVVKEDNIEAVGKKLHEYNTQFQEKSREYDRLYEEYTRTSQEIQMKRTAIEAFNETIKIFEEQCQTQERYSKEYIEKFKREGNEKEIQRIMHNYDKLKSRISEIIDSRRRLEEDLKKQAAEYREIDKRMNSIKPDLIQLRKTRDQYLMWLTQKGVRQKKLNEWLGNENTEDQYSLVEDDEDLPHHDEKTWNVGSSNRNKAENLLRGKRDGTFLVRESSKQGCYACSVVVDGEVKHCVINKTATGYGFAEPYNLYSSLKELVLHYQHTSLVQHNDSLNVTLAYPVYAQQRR

Compound	Ki (p110α (PI3Kα))	IC50 [2, 5]	kinact/KI (p110α (PI3Kα); PI3Kα, read-out: kinact/Ki)	kinact (p110α (PI3Kα); [6])	kchem [1]	kinact/KI (p110α (PI3Kα))	kinact (p110α (PI3Kα))	IC50 [2, 7]	metabolic stability [3]	aqueous solubility [4]
C=CC(=O)N1CCC(CCCC(=O)N2CCN(c3nc(-c4cnc(N)nc4C(F)F)nc(N4CCOCC4)n3)CC2)CC1 [Compound 47, 4-(1-acryloylpiperidin-4-yl)-1-(4-(4-(2-amino-4-(difluoromethyl)pyrimidin-5-yl)-6-morpholino-1,3,5-triazin-2-yl)piperazin-1-yl)butan-1-one]	0.00715 µM	0.024 µM			0.000225 M⁻¹ s⁻¹	70300 M⁻¹ s⁻¹	0.000504 s⁻¹			
C=CC(=O)N1CCC(COCC(=O)N2CCN(c3nc(-c4cnc(N)nc4C(F)F)nc(N4CCOCC4)n3)CC2)CC1 [Compound 46, 1-(4-((2-(4-(4-(2-amino-4-(difluoromethyl)pyrimidin-5-yl)-6-morpholino-1,3,5-triazin-2-yl)piperazin-1-yl)-2-oxoethoxy)methyl)piperidin-1-yl)prop-2-en-1-one]	0.00429 µM	0.023 µM	239000 M⁻¹ s⁻¹	0.00102 s⁻¹	0.00029 M⁻¹ s⁻¹					
C=CC(=O)N1CCC[C@@H](C(=O)N(C)CC(=O)N2CCN(c3nc(-c4cnc(N)nc4C(F)F)nc(N4CCOCC4)n3)CC2)C1 [Compound 18, (R)-1-acryloyl-N-(2-(4-(4-(2-amino-4-(difluoromethyl)pyrimidin-5-yl)-6-morpholino-1,3,5-triazin-2-yl)piperazin-1-yl)-2-oxoethyl)-N-methylpiperidine-3-carboxamide]	0.00608 µM				0.000704 M⁻¹ s⁻¹	711000 M⁻¹ s⁻¹	0.00433 s⁻¹	0.0153 µM		
C=CC(=O)N1CC[C@@H](C(=O)NCC(=O)N2CCN(c3nc(-c4cnc(N)nc4C(F)F)nc(N4CCOCC4)n3)CC2)C1 [Compound 25, (R)-1-acryloyl-N-(2-(4-(4-(2-amino-4-(difluoromethyl)pyrimidin-5-yl)-6-morpholino-1,3,5-triazin-2-yl)piperazin-1-yl)-2-oxoethyl)pyrrolidine-3-carboxamide]	0.00536 µM				0.00062 M⁻¹ s⁻¹	961000 M⁻¹ s⁻¹	0.00514 s⁻¹	0.042 µM		
C=CC(=O)N1CC(C(=O)N(C)CC(=O)N2CCN(c3nc(-c4cnc(N)nc4C(F)F)nc(N4CCOCC4)n3)CC2)C1 [Compound 33, 1-acryloyl-N-(2-(4-(4-(2-amino-4-(difluoromethyl)pyrimidin-5-yl)-6-morpholino-1,3,5-triazin-2-yl)piperazin-1-yl)-2-oxoethyl)-N-methylazetidine-3-carboxamide]	0.00643 µM				0.00581 M⁻¹ s⁻¹	1.17e+06 M⁻¹ s⁻¹	0.00757 s⁻¹	0.055 µM		
CC(C)=CC(=O)CCC(=O)N1CCN(Cc2cc3nc(-c4cccc5[nH]ncc45)nc(N4CCOCC4)c3s2)CC1 [CNX-1351, 1-[4-[[2-(1H-indazol-4-yl)-4-(4-morpholinyl)thieno[3,2-d]pyrimidin-6-yl]methyl]-1-piperazinyl]-6-methyl-5-heptene-1,4-dione, reference compound]		0.164 µM			0.000222 M⁻¹ s⁻¹				metabolic instability	low

Second part, led by results:

Ki (p110α (PI3Kα))	IC50 [2, 5]	kinact/KI (p110α (PI3Kα); PI3Kα, read-out: kinact/Ki)	kinact (p110α (PI3Kα); [6])	Compound	kchem [1]	kinact/KI (p110α (PI3Kα))	kinact (p110α (PI3Kα))	IC50 [2, 7]	metabolic stability [3]	aqueous solubility [4]
0.00607 µM	0.0641 µM	531000 M⁻¹ s⁻¹	0.0032 s⁻¹	C=CC(=O)N1CC[C@@H](C(=O)N(C)CC(=O)N2CCN(c3nc(-c4cnc(N)nc4C(F)F)nc(N4CCOCC4)n3)CC2)C1 [Compound 27, (R)-1-acryloyl-N-(2-(4-(4-(2-amino-4-(difluoromethyl)pyrimidin-5-yl)-6-morpholino-1,3,5-triazin-2-yl)piperazin-1-yl)-2-oxoethyl)-N-methylpyrrolidine-3-carboxamide]	0.00049 M⁻¹ s⁻¹					
0.00363 µM	0.133 µM	151000 M⁻¹ s⁻¹	0.000547 s⁻¹	C=CC(=O)N1CCC[C@H](C(=O)NCC(=O)N2CCN(c3nc(-c4cnc(N)nc4C(F)F)nc(N4CCOCC4)n3)CC2)C1 [Compound 15, (S)-1-acryloyl-N-(2-(4-(4-(2-amino-4-(difluoromethyl)pyrimidin-5-yl)-6-morpholino-1,3,5-triazin-2-yl)piperazin-1-yl)-2-oxoethyl)piperidine-3-carboxamide]	0.00073 M⁻¹ s⁻¹					
0.00834 µM	0.094 µM	311000 M⁻¹ s⁻¹	0.0026 s⁻¹	C=CC(=O)N1CC[C@H](C(=O)NCC(=O)N2CCN(c3nc(-c4cnc(N)nc4C(F)F)nc(N4CCOCC4)n3)CC2)C1 [Compound 24, (S)-1-acryloyl-N-(2-(4-(4-(2-amino-4-(difluoromethyl)pyrimidin-5-yl)-6-morpholino-1,3,5-triazin-2-yl)piperazin-1-yl)-2-oxoethyl)pyrrolidine-3-carboxamide]	0.00059 M⁻¹ s⁻¹					
0.0134 µM	0.609 µM	126000 M⁻¹ s⁻¹	0.00169 s⁻¹	C=CC(=O)N1CC(C(=O)NCCC(=O)N2CCN(c3nc(-c4cnc(N)nc4C(F)F)nc(N4CCOCC4)n3)CC2)C1 [Compound 35, 1-acryloyl-N-(3-(4-(4-(2-amino-4-(difluoromethyl)pyrimidin-5-yl)-6-morpholino-1,3,5-triazin-2-yl)piperazin-1-yl)-3-oxopropyl)azetidine-3-carboxamide]	0.00662 M⁻¹ s⁻¹					
